Reference: patent US12329786B2, “Regulate gut microbiota to treat neurodegenerative disorders” (California Institute of Technology, priority 2016, dated 2025)

Target: T1, human αSyn (Homo sapiens, UniProt P37840)
T1 construct: made in house
Assay: In vitro αSyn aggregation kinetics by ThT fluorescence
Type: biochemical
Conditions: range of concentrations, singly or in mixtures
Method: The ThT fluorescence signal was recorded using a microplate reader (Fluostar OPTIMA Microplate reader, BMG Labtech) with the excitation filter of 440±10 nm and an emission filter of 490±10 nm under intermittent shaking conditions at 37 °C. The kinetic curves were normalized to the fluorescence maxima and the time to reach half-maximum intensity quantified. For atomic force microscopy (AFM) imaging, samples were diluted with ultrapure water to […] total protein concentration, and […] were pipetted onto freshly cleaved mica and left to dry. The samples were imaged with a Modular scanning probe microscope NTEGRA Prima (NT-MDT) in intermittent contact mode in air using a gold-coated single crystal silicon cantilever (spring constant of ˜5.1 N/m) with a resonance frequency of ˜150 kHz. AFM images were processed with Gwyddion open source software.

| Compound | αSyn aggregation kinetics (ThT fluorescence, time to half-max) |
| --- | --- |
| CC(=O)[O-].[Na+] [sodium acetate] | did not expedite the aggregation of human αSyn in vitro |
| CCCC(=O)[O-].[Na+] [sodium butyrate] | did not expedite the aggregation of human αSyn in vitro |
| CCC(=O)[O-].[Na+] [sodium propionate] | did not expedite the aggregation of human αSyn in vitro |
